In patent US20070213291A1, “Therapeutically useful synthetic oligonucleotides” (priority 1999, published 2007):

Columns and labels:
Assay type in all cases: cell-based
[1] = test system: Jurkat human leukemia T cells; assay: Inhibition of Jurkat human leukemia T cell proliferation (MTT reduction); conditions: for % INHIBITION of Jurkat human leukemia T cell proliferation: 100 μg/ml sequence, 48 h, 2.5×10^5 cells/ml
Method: Cells were seeded in 6 (1 ml/well), 24 (0.5 ml/well) or 96 (0.1 ml/well) well flat-bottom microplates and were maintained at 37° C. in a 5% CO2 atmosphere. Unless stated otherwise, 2.5×10^5 cells/ml were incubated with 0 μg/ml (control) and 100 μg/ml (treated) of 2 to 45 base sequences containing A, C, G and T for 48 h.
MTT was measured at a wavelength of 570 nm using a multiplate spectrophotometer reader (ELX800, Bio-TEK Instruments Inc., Winooski, Vt.).
Jurkat human leukemia T cells are an atypical multi-drug resistant human suspension tumor cell model.

[2] = test system: THP-1 human acute monocytic leukemia cells; assay: Cytokine production by THP-1 cells (ELISA); conditions: THP-1, 1×10^6 cells, 100 μg/ml, 48 h; for ↑ IL-12 (fold increase treated vs control cells): p70 complex and free p40
Method: Unless stated otherwise, 1×10^6 cells were incubated with 100 μg/ml of each of the sequences tested for 48 h at 37° C. in 5% CO2. Production of cytokines IL-6, IL-10, IL-12, IL-1beta and TNF-alpha was determined in pg/ml in 100 μl of culture supernatant using the appropriate commercial ELISA (BioSource, Camarillo Calif.). The IL-12 ELISA measures both IL-12 p70 complex and free p40 subunit. Results are expressed as the “fold” (×) increase in cytokine production by treated cells compared to control cells.
THP-1 human acute monocytic leukemia cells were incubated with 2, 3, 6, 9, 12, 14, 15 and 18 base GT sequences and production of the cyotkine IL-6 was determined (Table 35).
THP-1 human acute monocytic leukemia cells were incubated with 6 base GT, AG, CG, GG, AGT and CGT sequences and production of the cytokines IL-12 and IL-6 was determined (Table 36).
THP-1 human acute monocytic leukemia cells were incubated with 6 base GT sequences, having either an oxygen (phosphodiester) or a sulfur (phosphorothioate) as the nonbridging atom on the phosphate groups and production of the cytokine IL-12 was determined (Table 39).
THP-1 human acute monocytic leukemia cells were incubated with 6 base GT SEQ ID NO:25, having either an oxygen (phosphodiester) or a sulfur (phosphorothioate) as the nonbridging atom on the phosphate groups and production of the cytokine IL-12 was determined (Table 40).

[3] = test system: Jurkat human leukemia T cells; assay: Cell cycle stage in Jurkat cells (propidium iodide flow cytometry); conditions: Jurkat, 24 h, 100 μg/ml
Method: Cell cycle stage was determined using a […]™ PLUS DNA commercial kit (Becton Dickinson). Briefly, nuclei from cells were obtained by dissolving the cell membrane in a nonionic detergent, eliminating the cell cytoskeleton and nuclear proteins with trypsin, digesting the cellular RNA with RNase and stabilizing the nuclear chromatin with spermine. Propidium iodide was added to the cell nuclei and their fluorescence was analyzed in a flow cytometer equipped with electronic doublet discrimination capability (FACSCalibur, Becton Dickinson, San Jose, Calif.). Accumulation of cells in G0/G1, early S (SE), mid S (SM), late S (SL) or G2/M phases of the cell cycle was analyzed using MODFIT LT software (Verity Software House Inc., Topsham, Mass.).
Exponentially growing Jurkat human leukemia T cells (Table 28) and MCF-7 human breast cancer cells (5×10^5 cells/ml) (Table 29) were incubated for 24 h with 2, 6, 15, 18, 27 and 45 base sequences containing A, C, G and T. The cells were collected and centrifuged and cell cycle stage was determined.
Jurkat human cell leukemia T cells (1×10^6 cells/ml) were incubated for 24 h with 6 base GT SEQ ID NO:25, conplementary 6 base AC SEQ ID NO:79 and 6 base GT SEQ ID NO:25+6 base AC SEQ ID NO:79. GT SEQ ID NO:25 and AC SEQ ID NO:79 were hybridized by mixing the oligonucleotides (1:1) and heating for 10 minutes at 65° C. As controls, GT SEQ ID NO:25 and AC SEQ ID NO:79 were heated for 10 minutes at 65° C. (Table 30).

Compound	% INHIBITION of Jurkat human leukemia T cell proliferation [1] [%]	further results
N.N.[Cl][Pt][Cl] [Cisplatin, reference compound]		% INHIBITION of Jurkat proliferation, Cisplatin 0.1 μg/ml ([1]; cisplatin 0.1 μg/ml, alone or with sequence at 1.0 μg/ml): 7%; % INHIBITION of Jurkat proliferation, Cisplatin 1.0 μg/ml ([1]; cisplatin 1.0 μg/ml, alone or with sequence at 1.0 μg/ml): 29%; % INHIBITION of Jurkat proliferation, Cisplatin 10.0 μg/ml ([1]; cisplatin 10.0 μg/ml, alone or with sequence at 1.0 μg/ml): 73%
ACGAGACCACCATCGTCGAGGGCGCCGGTGACACCGACGCCATCG (unmodified DNA) [BCG A-6, reference compound]	21	↑ IL-6 (fold increase treated vs control cells) [2]: 3.9x; ↑ IL-12 (fold increase treated vs control cells) [2]: 2.1x
ACGCCGACGTCGTCTGTGGTGGGGTGTCTACCGCCAACGCGACGG (unmodified DNA) [BCG M-3, reference compound]	22	↑ IL-6 (fold increase treated vs control cells) [2]: 2.5x; ↑ IL-12 (fold increase treated vs control cells) [2]: 1.6x
CCGTGG [SEQ ID NO:34]	37	↑ IL-6 (fold increase treated vs control cells) [2]: 10.8x; ↑ IL-12 (fold increase treated vs control cells) [2]: 0.0x
CGACTACAACGGCTGGGATATCAACACCCCGGCGTTCGAGTGGTA (unmodified DNA) [BCG ALPHA-1, reference compound]	10	↑ IL-6 (fold increase treated vs control cells) [2]: 2.1x; ↑ IL-12 (fold increase treated vs control cells) [2]: 1.1x
CGGTGC [SEQ ID NO:38]	16	↑ IL-6 (fold increase treated vs control cells) [2]: 6.9x; ↑ IL-12 (fold increase treated vs control cells) [2]: 0.2x
GAGTGA [SEQ ID NO:32]	24	↑ IL-6 (fold increase treated vs control cells) [2]: 5.8x; ↑ IL-12 (fold increase treated vs control cells) [2]: 1.8x
GGAGGG (unmodified DNA) [SEQ ID NO:47]	14	
GGGTGGG (unmodified DNA) [SEQ ID NO:63]	28	
GGGTGGT (unmodified DNA) [SEQ ID NO:65]	48	
GGTT (unmodified DNA) [SEQ ID NO:58]	37	
GTGGGG [SEQ ID NO:48]	26	
GTGT (unmodified DNA) [SEQ ID NO:54]	42	
GTGTGTGTGTGTGTGTGTGTG (unmodified DNA) [SEQ ID NO:20]	46	
GTGTGTGTGTGTGTGTGTGTGTGT [SEQ ID NO:22]	56	
GTGTGTGTGTGTGTGTGTGTGTGTGTG (DNA, backbone not given here; further chemistry not fully specified) [SEQ ID NO:1 phosphorothioate]		% of cells in phase: G0/G1 [3]: 33.7%; % of cells in phase: G2/M [3]: 24.5%; % of cells in phase: SE [3]: 17.6%; % of cells in phase: SL [3]: 11.0%; % of cells in phase: SM [3]: 13.2%; Arrest (cell cycle) [3]: None
TCTCTCTCTCTCTCTCTCTCTCTCTCT (unmodified DNA) [SEQ ID NO:6]	0	
TGGGTGG (unmodified DNA) [SEQ ID NO:64]	55	
TGTG (unmodified DNA) [SEQ ID NO:59]	52	
TGTGTGTGTGTGTGTGTGTGT (unmodified DNA) [SEQ ID NO:19]	60	
TGTGTGTGTGTGTGTGTGTGTGTG [SEQ ID NO:21]	54	
TGTGTGTGTGTGTGTGTGTGTGTGTG (DNA TGTGTGTGTGTGTGTGTGTGTGTGTGT; unmodified DNA) [SEQ ID NO:5]	45	
TGTT (unmodified DNA) [SEQ ID NO:57]	32	
TTGG (unmodified DNA) [SEQ ID NO:55]	44	
TTGT (unmodified DNA) [SEQ ID NO:53]	25	
